Data published in ChEMBL document CHEMBL5465560, “Selectivity Literature for EUbOPEN Chemogenomic Library” (2024).

Legend:
[1] = molecular target: Atypical kinase COQ8A, mitochondrial (Homo sapiens, UniProt Q8NI60); conditions: at 10 µM
[2] = test system: Epidermal growth factor receptor (Homo sapiens), P00533 [L861Q]; experiment: (§1) Selectivity interaction (ProQinase) EUB0000171b EGFR
[3] = molecular target: Epidermal growth factor receptor (Homo sapiens, UniProt P00533); experiment: as §1
[4] = test system: Epidermal growth factor receptor (Homo sapiens), P00533 [G719C]; experiment: as §1
[5] = test system: Epidermal growth factor receptor (Homo sapiens), P00533 [L858R]; experiment: as §1
Chain of Epidermal growth factor receptor (Homo sapiens), P00533 [L858R] (P00533 whole entry L858R): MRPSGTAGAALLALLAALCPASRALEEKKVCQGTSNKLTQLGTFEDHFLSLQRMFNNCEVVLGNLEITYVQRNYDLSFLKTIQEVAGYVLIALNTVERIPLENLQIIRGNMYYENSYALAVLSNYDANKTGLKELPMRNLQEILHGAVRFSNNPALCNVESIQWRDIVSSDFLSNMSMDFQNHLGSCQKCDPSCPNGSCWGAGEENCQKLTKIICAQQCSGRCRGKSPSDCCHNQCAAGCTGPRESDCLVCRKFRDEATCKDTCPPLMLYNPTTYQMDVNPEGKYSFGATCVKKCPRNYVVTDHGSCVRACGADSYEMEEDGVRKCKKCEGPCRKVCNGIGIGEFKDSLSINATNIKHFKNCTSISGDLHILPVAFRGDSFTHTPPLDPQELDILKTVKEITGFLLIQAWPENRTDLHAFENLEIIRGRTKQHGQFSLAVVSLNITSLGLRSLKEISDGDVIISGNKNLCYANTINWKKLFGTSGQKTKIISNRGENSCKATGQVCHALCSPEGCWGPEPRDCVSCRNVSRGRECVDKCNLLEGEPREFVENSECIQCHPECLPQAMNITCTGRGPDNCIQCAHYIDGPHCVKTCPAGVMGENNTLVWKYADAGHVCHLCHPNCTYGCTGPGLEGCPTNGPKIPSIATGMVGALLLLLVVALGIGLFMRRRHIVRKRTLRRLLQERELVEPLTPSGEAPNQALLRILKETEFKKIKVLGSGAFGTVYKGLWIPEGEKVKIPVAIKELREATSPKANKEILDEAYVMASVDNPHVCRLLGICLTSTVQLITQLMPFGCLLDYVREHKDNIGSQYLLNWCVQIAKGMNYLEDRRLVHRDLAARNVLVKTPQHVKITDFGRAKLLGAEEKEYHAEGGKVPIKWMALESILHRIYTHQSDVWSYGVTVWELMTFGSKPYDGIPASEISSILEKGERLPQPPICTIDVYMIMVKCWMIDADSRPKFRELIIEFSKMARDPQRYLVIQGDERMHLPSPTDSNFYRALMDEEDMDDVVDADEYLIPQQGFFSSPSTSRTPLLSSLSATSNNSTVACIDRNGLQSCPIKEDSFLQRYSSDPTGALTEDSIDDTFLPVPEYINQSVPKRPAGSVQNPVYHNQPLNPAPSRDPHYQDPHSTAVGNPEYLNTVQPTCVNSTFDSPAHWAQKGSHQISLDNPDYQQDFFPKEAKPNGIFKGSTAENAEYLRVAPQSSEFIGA

[6] = test system: Epidermal growth factor receptor (Homo sapiens), P00533 [G719S]; experiment: as §1
[7] = test system: Epidermal growth factor receptor (Homo sapiens), P00533 [UNDEFINED MUTATION]; experiment: as §1
Chain of Epidermal growth factor receptor (Homo sapiens), P00533 [UNDEFINED MUTATION] (P00533 whole entry, looked up, stated change not applied): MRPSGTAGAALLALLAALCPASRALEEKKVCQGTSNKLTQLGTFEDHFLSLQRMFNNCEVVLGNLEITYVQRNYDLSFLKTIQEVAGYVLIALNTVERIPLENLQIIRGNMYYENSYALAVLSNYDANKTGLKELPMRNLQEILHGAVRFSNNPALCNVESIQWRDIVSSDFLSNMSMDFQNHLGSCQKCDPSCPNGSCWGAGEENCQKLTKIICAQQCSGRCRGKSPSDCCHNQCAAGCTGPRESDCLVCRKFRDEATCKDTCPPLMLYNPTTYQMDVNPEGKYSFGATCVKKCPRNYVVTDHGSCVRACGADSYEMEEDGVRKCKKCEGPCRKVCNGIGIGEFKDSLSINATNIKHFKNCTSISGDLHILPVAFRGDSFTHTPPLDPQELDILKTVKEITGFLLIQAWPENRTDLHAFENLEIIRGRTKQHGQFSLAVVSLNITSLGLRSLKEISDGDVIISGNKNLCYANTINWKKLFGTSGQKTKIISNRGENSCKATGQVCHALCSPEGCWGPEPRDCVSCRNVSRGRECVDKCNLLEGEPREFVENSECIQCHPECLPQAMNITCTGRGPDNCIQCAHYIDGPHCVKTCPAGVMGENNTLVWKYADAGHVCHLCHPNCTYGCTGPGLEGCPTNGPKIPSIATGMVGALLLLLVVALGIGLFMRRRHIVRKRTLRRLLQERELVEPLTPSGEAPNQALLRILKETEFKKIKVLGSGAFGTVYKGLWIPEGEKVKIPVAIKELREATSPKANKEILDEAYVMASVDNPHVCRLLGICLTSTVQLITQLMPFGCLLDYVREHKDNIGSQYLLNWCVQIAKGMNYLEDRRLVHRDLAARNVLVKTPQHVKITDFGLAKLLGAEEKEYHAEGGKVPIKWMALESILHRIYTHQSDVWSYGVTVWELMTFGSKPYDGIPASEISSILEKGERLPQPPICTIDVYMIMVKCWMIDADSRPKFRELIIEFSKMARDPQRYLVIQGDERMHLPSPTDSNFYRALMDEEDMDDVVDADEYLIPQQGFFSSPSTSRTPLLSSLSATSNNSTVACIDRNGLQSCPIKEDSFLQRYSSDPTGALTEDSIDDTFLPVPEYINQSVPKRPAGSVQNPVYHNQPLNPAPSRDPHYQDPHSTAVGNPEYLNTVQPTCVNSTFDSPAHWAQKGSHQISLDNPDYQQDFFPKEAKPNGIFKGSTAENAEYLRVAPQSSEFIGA

[8] = test system: Epidermal growth factor receptor (Homo sapiens), P00533 [L858R,T790M]; experiment: as §1
[9] = test system: Epidermal growth factor receptor (Homo sapiens), P00533 [T790M]; experiment: as §1
[10] = molecular target: T1, Serine/threonine-protein kinase tousled-like 1 (Homo sapiens) (UniProt Q9UKI8); experiment: Selectivity interaction (ActivX KiNativ screen (kinase selectivity in THP-1 cell lysates)) EUB0000639a TLK1; assay type: subcellular; conditions: lysate, at 0.01 µM
T1 sequence (whole entry): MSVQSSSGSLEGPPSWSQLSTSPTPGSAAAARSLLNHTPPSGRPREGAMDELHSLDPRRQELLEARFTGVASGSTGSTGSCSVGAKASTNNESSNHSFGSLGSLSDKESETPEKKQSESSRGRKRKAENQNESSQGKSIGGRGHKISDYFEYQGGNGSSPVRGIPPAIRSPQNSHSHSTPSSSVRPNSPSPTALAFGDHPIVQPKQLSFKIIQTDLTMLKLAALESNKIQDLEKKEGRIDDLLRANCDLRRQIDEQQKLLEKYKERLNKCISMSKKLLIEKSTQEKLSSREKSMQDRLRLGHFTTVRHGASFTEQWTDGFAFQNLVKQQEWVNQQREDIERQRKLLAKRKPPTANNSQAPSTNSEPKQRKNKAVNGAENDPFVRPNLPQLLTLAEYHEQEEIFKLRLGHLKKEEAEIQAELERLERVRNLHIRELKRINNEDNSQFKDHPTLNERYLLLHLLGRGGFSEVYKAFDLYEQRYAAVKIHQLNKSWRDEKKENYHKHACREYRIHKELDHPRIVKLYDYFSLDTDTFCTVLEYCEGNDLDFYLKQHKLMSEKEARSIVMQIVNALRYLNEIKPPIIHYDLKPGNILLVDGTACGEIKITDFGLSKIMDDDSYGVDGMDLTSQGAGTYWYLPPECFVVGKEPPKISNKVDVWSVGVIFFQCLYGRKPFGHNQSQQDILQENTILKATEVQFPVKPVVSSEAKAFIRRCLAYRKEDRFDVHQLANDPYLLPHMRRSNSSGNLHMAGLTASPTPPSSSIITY

[11] = molecular target: T2, Uncharacterized serine/threonine-protein kinase SBK3 (Homo sapiens) (UniProt P0C264); experiment: Selectivity interaction (KinomeScan (DiscoverX)) EUB0000607a SBK3; conditions: at 10 µM
T2 sequence (whole entry): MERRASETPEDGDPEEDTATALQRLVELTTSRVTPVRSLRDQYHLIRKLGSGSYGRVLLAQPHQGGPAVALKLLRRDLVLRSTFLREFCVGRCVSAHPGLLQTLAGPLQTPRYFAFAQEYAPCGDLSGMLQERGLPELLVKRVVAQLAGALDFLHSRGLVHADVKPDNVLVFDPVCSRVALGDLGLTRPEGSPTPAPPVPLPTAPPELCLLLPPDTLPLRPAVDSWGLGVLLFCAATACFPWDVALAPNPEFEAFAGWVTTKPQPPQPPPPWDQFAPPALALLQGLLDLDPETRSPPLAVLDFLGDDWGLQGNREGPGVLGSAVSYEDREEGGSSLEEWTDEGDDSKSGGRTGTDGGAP

[12] = molecular target: T3, Serine/threonine-protein kinase TNNI3K (Homo sapiens) (UniProt Q59H18); experiment: Selectivity interaction (KinomeScan (DiscoverX)) EUB0000595a TNNI3K; conditions: at 10 µM
T3 sequence (whole entry): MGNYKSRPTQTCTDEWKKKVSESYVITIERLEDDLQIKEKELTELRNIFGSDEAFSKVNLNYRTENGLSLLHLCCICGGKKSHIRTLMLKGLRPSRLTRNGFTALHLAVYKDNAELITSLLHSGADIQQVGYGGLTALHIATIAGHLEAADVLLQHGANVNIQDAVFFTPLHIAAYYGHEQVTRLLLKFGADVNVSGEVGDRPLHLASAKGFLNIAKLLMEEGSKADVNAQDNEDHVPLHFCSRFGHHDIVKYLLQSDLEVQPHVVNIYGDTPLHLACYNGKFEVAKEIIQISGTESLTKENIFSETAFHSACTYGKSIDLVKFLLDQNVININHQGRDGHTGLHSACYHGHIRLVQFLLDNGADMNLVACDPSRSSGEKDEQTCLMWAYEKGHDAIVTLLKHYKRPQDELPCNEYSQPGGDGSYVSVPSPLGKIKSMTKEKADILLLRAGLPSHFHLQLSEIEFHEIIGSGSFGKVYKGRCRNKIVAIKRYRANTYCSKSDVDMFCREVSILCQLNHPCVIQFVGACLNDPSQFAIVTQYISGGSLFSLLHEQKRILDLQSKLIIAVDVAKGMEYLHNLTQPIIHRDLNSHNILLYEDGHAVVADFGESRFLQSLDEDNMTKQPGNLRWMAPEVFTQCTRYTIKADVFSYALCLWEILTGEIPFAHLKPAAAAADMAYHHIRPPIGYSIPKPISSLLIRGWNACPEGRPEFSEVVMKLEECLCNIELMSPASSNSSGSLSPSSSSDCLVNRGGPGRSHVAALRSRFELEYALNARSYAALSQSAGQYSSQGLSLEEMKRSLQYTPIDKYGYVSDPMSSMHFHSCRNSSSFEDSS

[13] = molecular target: Insulin-like growth factor 1 receptor (Homo sapiens, UniProt P08069); experiment: Selectivity interaction (KinomeScan (DiscoverX)) EUB0000045b IGF1R
Chain of Insulin-like growth factor 1 receptor (P08069 31-736 limits assumed): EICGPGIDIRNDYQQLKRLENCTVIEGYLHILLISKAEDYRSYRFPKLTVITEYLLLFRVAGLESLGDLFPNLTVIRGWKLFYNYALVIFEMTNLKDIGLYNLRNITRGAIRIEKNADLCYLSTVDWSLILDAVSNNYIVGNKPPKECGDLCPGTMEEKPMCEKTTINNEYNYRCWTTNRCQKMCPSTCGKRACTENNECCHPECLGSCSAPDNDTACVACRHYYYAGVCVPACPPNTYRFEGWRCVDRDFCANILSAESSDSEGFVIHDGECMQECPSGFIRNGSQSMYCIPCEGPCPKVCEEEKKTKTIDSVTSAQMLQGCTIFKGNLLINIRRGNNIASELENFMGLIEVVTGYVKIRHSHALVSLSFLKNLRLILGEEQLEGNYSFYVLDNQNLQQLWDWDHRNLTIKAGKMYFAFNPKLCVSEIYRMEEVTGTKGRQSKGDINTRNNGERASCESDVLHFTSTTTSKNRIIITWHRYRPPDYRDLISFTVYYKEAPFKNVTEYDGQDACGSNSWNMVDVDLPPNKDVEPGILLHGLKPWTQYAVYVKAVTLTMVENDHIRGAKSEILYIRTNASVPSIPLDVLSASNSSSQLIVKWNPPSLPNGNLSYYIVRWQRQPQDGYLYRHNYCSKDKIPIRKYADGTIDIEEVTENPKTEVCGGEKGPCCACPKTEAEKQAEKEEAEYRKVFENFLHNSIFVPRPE
Chain of Insulin-like growth factor 1 receptor (P08069 741-1367 limits assumed): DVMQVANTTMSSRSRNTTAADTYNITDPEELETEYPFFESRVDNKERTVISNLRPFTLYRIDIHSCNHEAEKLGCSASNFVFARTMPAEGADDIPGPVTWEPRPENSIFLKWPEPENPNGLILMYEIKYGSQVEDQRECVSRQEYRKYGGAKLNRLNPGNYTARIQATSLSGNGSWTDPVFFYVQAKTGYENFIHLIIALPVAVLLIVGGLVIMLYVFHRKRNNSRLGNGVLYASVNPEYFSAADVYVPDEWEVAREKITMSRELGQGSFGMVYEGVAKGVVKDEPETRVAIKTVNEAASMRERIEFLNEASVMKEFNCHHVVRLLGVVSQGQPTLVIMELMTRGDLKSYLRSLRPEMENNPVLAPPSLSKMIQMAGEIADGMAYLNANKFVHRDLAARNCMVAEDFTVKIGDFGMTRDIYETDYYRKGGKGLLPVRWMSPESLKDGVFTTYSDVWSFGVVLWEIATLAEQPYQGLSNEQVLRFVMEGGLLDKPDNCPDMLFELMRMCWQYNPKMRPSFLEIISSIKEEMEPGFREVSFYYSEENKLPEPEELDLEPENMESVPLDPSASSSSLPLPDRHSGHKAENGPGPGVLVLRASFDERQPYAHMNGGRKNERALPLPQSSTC

Chain of Epidermal growth factor receptor (P00533 whole entry): as the sequence (P00533 whole entry, looked up, stated change not applied) above

SMILES: CCN(CC)CCCCNc1ncc2cc(-c3cc(OC)cc(OC)c3)c(NC(=O)NC(C)(C)C)nc2n1
- % of control [1]: 100%

SMILES: C=CC(=O)Nc1cccc(C(=O)Nc2ccc(Nc3cc(-c4[nH]c(SC)nc4C)ccn3)cc2)c1
- % of control ([2]; at 1 µM): 104%
- % of control ([2]; at 5 µM): 91%
- % of control ([3]; at 1 µM): 108%
- % of control ([3]; at 5 µM): 101%
- % of control ([4]; at 1 µM): 96%
- % of control ([4]; at 5 µM): 75%
- % of control ([5]; at 1 µM): 95%
- % of control ([5]; at 5 µM): 83%
- % of control ([6]; at 1 µM): 88%
- % of control ([6]; at 5 µM): 97%
- % of control ([7]; at 1 µM): 115%
- % of control ([7]; at 5 µM): 88%
- % of control ([8]; at 1 µM): 96%
- % of control ([8]; at 5 µM): 96%
- % of control ([9]; at 1 µM): 91%
- % of control ([9]; at 5 µM): 84%

SMILES: CC[C@@H]1[C@H](F)C(=O)N[C@@H]1COc1nccc2cc(C(N)=O)c(OC)cc12 [ZIMLOVISERTIB]
- % of inhibition [10]: 1.9%

SMILES: CNC(=O)Nc1ccc(-c2nc(N3CC4CCC(C3)O4)c3cnn(C4CCC5(CC4)OCCO5)c3n2)cc1
- % of control [11]: 96%

SMILES: COCC(=O)NC/C=C/c1ccc2ncnc(Nc3ccc(Oc4ccc(C)nc4)c(C)c3)c2c1 [CP-724714]
- % of control [12]: 100%

SMILES: C=CC(=O)Nc1cc(-n2c(=O)ccc3cnc4ccc(-c5ccc(NS(C)(=O)=O)cc5)cc4c32)ccc1C
- % of control ([13]; at 1 µM): 100%
- % of control ([13]; at 10 µM): 80%
